Measurements reported in patent US20230020401A1, “METABOLIC REPROGRAMMING OF IMMUNE CELLS TO ENHANCE THE EFFICACY OF PROPHYLACTIC AND T[…]” (priority 2019, published 2023).

Experiments:
IgG1 GC B cells = test: SRBC immunization of mice with Mdivi-1 treatment (GC and memory B cells); format: in vivo
[1] = tested on: immune cells (GC B cells, memory B cells, non-B cells); test: Mitochondrial mass of immune cells in vivo after SRBC immunization with SBP-AS08; parameters: species or system mice
Procedure: Seven mice each in two group were immunized with SRBC on Day 0 and Day 4. One group on Day 3 and Day 7 were given SBP-A508 at 2.5 mg/kg. GC B cells were MACS and stained with Tomm20 (red) to stain mitochondria and DAPI to stain nucleus on Day 15. Cells were imaged using confocal microscope.
In another experiment, mice each in two group were immunized with SRBC on Day 0 and Day 5. One group of mice was also injected with SBP-A508 on Day 7 and Day 10. […] Day 15 post immunization, mice were sacrificed and spleens were harvested. Cells were incubated in Mitotracker red dye 200 nM per ml of RPMI for 15 mins at culture conditions. Cells were further stained with surface antibodies B220, CD38, Fas to determine B cells, Germinal Center and non-B cells populations.

IgG1 memory cells [2] = test: Effect of Mdivi-1 on IgG1 memory cells formation 6 months post immunization; format: in vivo
IgG1 memory cells [3] = test: SRBC immunization Day 0 with SBP-AS08 on day 2, IgG1 memory cells; format: in vivo, mice; conditions: SRBC with SBP-AS08 vs SRBC alone
Procedure: Seven mice were immunized with SRBC Day 0, and further injected with SBP-AS08 on day 2. Then, serum from immunized mice was incubated with SRBC and stained by anti-mouse IgG1 antibody to detect the SRBC specific IgG1 antibody. FIG. 12A is the graph showing absolute number of IgG1 memory cells in SRBC alone and SRBC with SBP-A508, indicating the increase of IgG1 memory cells in the mice injected with SBP-AS08.

NP specific B cells = test: NP-CGG immunization with Mdivi-1 (day 2, 5, 8) and rechallenge on day 61; format: in vivo, mice
Procedure: FIG. 12C is a schematic of an experimental design of multiple injections of Mdivi-1 (SBP-A508) for studying NP-CGG immunization along with or without SBP-A508 treatment. As shown, mice were injected with NP-CGG on day 0, and further injected with SBP-A508 on day 2, Day 5, and Day 8 at a dose of 2.5 mg/kg each. Then, a boost immunization (rechallenge) was given on day 61. Mice were bleed on day 82 for further analysis. FIG. 12D is a bar graph in log scale showing the NP-2 specific antibody production measured by ELISA in control and SBP-AS08 treated group upon rechallenge with NP-CGG in PBS on Day 61. Mice were bleed on Days 0, 60, 68, 75 and 82.
FIG. 13A depicts an experimental design for studying NP-CGG immunization along with or without Mdivi-1 treatment. Briefly, Mdivi-1 treatments were performed at least three times after immunization (day 2, day 5, and day 8), and the blood samples from the subject were analyzed at 2 months after the immunization. […] Mice were bleed on days 0, 60, 68, 75 and 82.
Mice were immunized with NP-CGG and treated with Mdivi-1 at least three times after immunization (day 2, day 5, and day 8). Then, a boost immunization (rechallenge) was given on day 61. Mice were bleed on day 82 for further analysis. […] Mice were bleed on days 0, 60, 68, 75 and 82 after immunization with NP-CGG. […] As shown in FIGS. 17A-B, Mdivi-1 treated mice replenished their memory B cell pool.

[4] = tested on: T follicular helper (TFh) cells; test: T follicular helper (TFh) cells in Mdivi-1 treated mice; format: in vivo
Excerpt: […] Dot plots shown in FIG. 18B show the frequencies of TFh cells. […] Similarly, FIGS. 23A-B show flow plots (FIG. 23A) and graph (FIG. 23B) displaying enrichment of T follicular helper cells in mice treated with Mdivi-1.

IgG1 memory B cells = test: SRBC immunization, Mdivi-1 once on Day 3, analysis on day 11 (IgG1 memory and memory precursor cells, antibodies); format: in vivo, mice
Procedure: Mice were immunized with Sheep red blood cells (SRBC) to mount an immune response. One group was treated with Mdivi-1 once at the dose of 2.5 mg/kg on Day 3. Blood samples of all groups were analyzed on day 11 after initial immunization.
FIGS. 21A-B show increased IgG1 memory cell population upon Mdivi-1 treatment. […] show flow plots showing IgG1 population and gating memory B cells in immunized control and Mdivi-1 treated mice.
FIG. 22A show two flow plots showing population of SRBC-specific IgG1 memory precursors in control and Mdivi-1 treated group (right upper boxes). FIG. 22B is the graph showing frequencies of IgG1 memory precursors.
Sera was incubated with SRBC to bind all the SRBC specific antibody, followed by staining SRBCs with anti-IgG1 to determine the SRBC specific IgG1 in control and Mdivi-1 treated group of mice.

IgM and IgG1 cells = test: Confocal imaging of mitochondria organization upon BCR stimulation; format: cell-based; conditions: BCR+Mdivi-1
H1N1 = test: Flu vaccine with Mdivi-1, lethal H1N1 challenge; format: in vivo, mice
Procedure: 4 groups of ten mice each (6-8 weeks) were vaccinated intra-nasally with flu vaccine (vaccine group and vaccine+Mdivi-1 (SBP AS-08) group) or saline (No Vaccine group). In day 3, vaccine+Mdivi-1 (SBP AS-08) group and Mdivi-1 only group were administered with 2.5 mg/kg dose of Mdivi-1 (SBP AS-08), while all other groups were administered with saline. In day 60, all groups were administered with a lethal dose of H1N1. FIG. 28A is an individual dot graph showing the weight of mice in each group post lethal H1N1 viral infection. For each time point, dot or a group of dots from left to right represent the sample fo no vaccine, SBP-AS08 only, vaccine only, and vaccine and SBP-AS08, respectively. […] Mice were sacrificed if the weight reached 70% of their original weight or appeared very sick. N=10 per group, *p=0.04, ** p=0.001, ***p=0.0001, ****p<0.0001.
Mice from each group were also sacrificed on Day 7 post lethal influenza infection.

SRBC specific antibody = test: SRBC immunization in older age mice with Mdivi-1; format: in vivo; conditions: 14-24 months old mice; 2.5 mg/kg day 3; day 11
Procedure: 2 groups of eight mice each (14-24 months old age) were immunized intraperitoneally with sheep red blood cells (SRBC). In day 3, one group (SRBC group) was administered with saline, and another group (SRBC+Mdivi-1 (SBP-AS08)) was administered with 2.5 mg/kg dose of Mdivi-1 (SBP AS-08). FIG. 30B and FIG. 30C show scatter plots of SRBC specific anti-IgM antibody or SRBC specific anti-IgG1 antibody of two groups in day 11 after administration of SRBC, respectively. Each dot represents each individual mice in each group.

SARS-CoV2 specific cells = test: SARS-CoV2 S1 subunit vaccine with Mdivi-1 (SBP-AS08) in mice; format: in vivo
pseudo SARS-CoV2 virus = format: cell-based, human
[5] = tested on: mouse pancreatic cancer cells; test: Neo-antigen vaccine with SBP-AS08 in mouse pancreatic cancer model; format: in vivo, mice; conditions: Kaplan Meier
Procedure: The effect of Mdivi-1 (SBP-AS08) in boosting immunity can be extrapolated to other diseases related to specific immune response (e.g., cancer, etc.). FIG. 36A is a schematic of an experimental layout to test the effect of Mdivi-1 (SBP-AS08) in mouse cancer model. In this experiment, mouse pancreatic cancer cell line lysate was used as the vaccine. 200,000 mouse pancreatic cancer cells were injected in 10 (C57/B6) mice per group via tail vein. Effectiveness of the vaccine was tested by analyzing the metastasis of the cancer cells from the pancreas to lungs (FIG. 36B). Lungs tissues were collected from group of vaccine and vaccine with SBP-AS08 on Day 22 post injections. Two more groups with no treatment and only SBP-AS08 treatment were also included in the analysis.
FIG. 37A and FIG. 37B show Kaplan Meier survival curve of mice that are unvaccinated, treated with SBP-AS08 only, treated with vaccine, or treated with vaccine and SBP-AS08.

[6] = tested on: plasma cells (CD138+ cells); test: Plasma cell (PC) differentiation in vitro; format: cell-based
Procedure: Cells were treated either with Etomoxir to prevent fatty acid oxidation or with 2-deoxy-D-glucose (2DG) to […] to see the effect of fatty acid oxidation in plasma cell differentiation.

[7] = Mdivi-1 two days post immunization
[8] = 2.5 mg/kg Day 3 and Day 7, mitotracker red MFI, Day 15
[9] = injected Day 7 and Day 10, spleen Day 15, Mitotracker red
[10] = single injection 2.5mg/kg Day 3, Day 15

COc1cc(-n2c(=S)[nH]c3ccccc3c2=O)c(Cl)cc1Cl [Mdivi-1, 3-(2,4-dichloro-5-methoxyphenyl)-2,3-dihydro-2-thioxo-4(1H)-quinazolinone]
frequencies of GC B cells (IgG1 GC B cells; Mdivi-1 twice, each 3 days after SRBC, vs control): increased
IgG1 memory B cells (IgG1 GC B cells; [7]): significant increase
longevity of IgG1 memory B cells (IgG1 GC B cells; [7]): significant increase
mitochondrial mass of IgG1 memory B cells (IgG1 GC B cells; [7]): significant increase
mitochondrial mass of IgG1 GC B cells (IgG1 GC B cells; Mitotracker green MFI): enhances
IgG1 B cell loss through mitochondrial fragmentation and apoptosis (IgG1 GC B cells; SRBC immunization): prevents IgG1 B cell loss
survival of IgG1 GC B cells (IgG1 GC B cells; active caspase-3, flow cytometry): enhances
mitochondrial mass of germinal center B cells [1, 8]: enhances
mitochondrial mass of memory B cells [1, 8]: enhances
mitochondrial mass of B cells [1, 9]: significantly increased
mitochondrial mass of non-B cells [1, 9]: significantly increased
immune memory formation (IgG1 expressing memory B cells) (IgG1 memory cells [2]): facilitates immune memory formation
absolute number of IgG1 memory cells (IgG1 memory cells [3]): increase
frequency of NP specific B cells (NP specific B cells; 2 months after immunization, vs control): substantial increase
memory B cell pool (NP specific B cells; after rechallenge): replenished
number of NP specific IgG1 memory cells (NP specific B cells; after rechallenge, vs control): significantly increased
number of NP specific immune cells (NP specific B cells; after rechallenge, vs control): significantly increased
antigen specific antibody generation after antigen boost (NP specific B cells; rechallenge with NP-CGG in PBS on Day 61): substantially increased
mice showing secondary response upon recall (NP specific B cells; upon recall, control group 33%): 100%
NP specific antibody production measured by ELISA (NP specific B cells; vs control): increased
frequency of TFh cells ([4]; FIG. 18B, vs control): substantially increased
T follicular helper cells ([4]; FIGS. 23A-B): enrichment
PD-1 molecule expression on T follicular helper cells (median fluorescent intensity) ([4]; vs nontreated control group): higher
IgG1+CD38+ cell population (IgG1 memory B cells) (IgG1 memory B cells; 2.5 mg/kg once on Day 3, day 11): substantially increased
frequencies of SRBC-specific IgG1 memory precursors (IgG1 memory B cells; FIG. 19): significantly increased
IgG1+CD38+ cell population (memory precursors cells) (IgG1 memory B cells; FIGS. 22A-B): substantially increased
efficacy of immunization (total IgG and SRBC specific IgG antibodies) (IgG1 memory B cells; FIGS. 24A-B): increases the efficacy of immunization
mitochondrial fission in BCR treated cells (IgM and IgG1 cells): prevents the mitochondrial fission
protection against fatal influenza infection (event free survival) (H1N1; 2.5 mg/kg day 3 after flu vaccine, lethal H1N1 day 60): boosts the protection
disease progression post H1N1 (lung histology) (H1N1; Day 7 post lethal influenza infection, H&E): reduces the disease progression
SRBC specific anti-IgG1 antibody (SRBC specific antibody): substantially increased
efficacy of the vaccine after rechallenge (S1 specific antibody titers in serum) (SARS-CoV2 specific cells; 2.5 mg/kg Day 2 and Day 5, boost day 30, Day 37 and Day 44): enhances the efficacy
number of marker-specific B cells (SARS-CoV2 specific cells; injections Day 2 and Day 5, Day 15, vs vaccine alone): further increased
number of SARS-CoV2-specific cells (SARS-CoV2 specific cells; [10]): increased
number of SARS-CoV2-specific memory B cells (SARS-CoV2 specific cells; [10]): increased
number of anti-SARS-CoV2 antibody producing cells (SARS-CoV2 specific cells; [10]): increased
number of splenocytes (SARS-CoV2 specific cells; [10]): increased
% of neutralizing antibody titers (SARs-Cov2 pseudovirus neutralization) (pseudo SARS-CoV2 virus): higher
survival of tumor bearing mice [5]: increases the survival

CCOC(=O)[C@@]1(CCCCCCOc2ccc(Cl)cc2)CO1 [Etomoxir]
number of CD138+ cells [6]: substantially increased

O=CC[C@@H](O)[C@H](O)[C@H](O)CO [2DG, 2-deoxy-D-glucose]
number of CD138+ cells [6]: substantially decreased
